# Measurements reported in patent US7998936B2, “Use of timosaponin Bll in the preparation of a medicament or product for the prevention and treatment of stroke” (Institute of Radiation Medicine, Academy of Military …, priority 2004, dated 2011).
# How the values were obtained:
# [1] = test system: FeCl3-Induced Middle Cerebral Artery Thrombosis (MCAT) Rats; assay: Neurological symptom score in middle cerebral artery thrombosis rats; assay type: in vivo, rat; settings: for effect on neurological symptoms (in words): 20 mg/kg and 40 mg/kg, 7 days; for neurological symptomatic score 6 h: 6 h after operation; for neurological symptomatic score 6 h / neurological symptomatic score 24 h: full score 4; for neurological symptomatic score 24 h: 24 h after operation
# Source text: (§1) Tamura and Liu's methods were used with modifications to prepare the model. Rats were anesthetized by intraperitoneal injection of 10% chloral hydrate (0.35 g/kg); and fixed with right arm reclining. An arc incision of about 1.5 cm in length was made at the midpoint between the link of paropia and external auditory canal and temporalis was removed to expose the temporal bone. […] The surrounding-tissues were protected with a piece of plastic film. A small piece of quantitative filter paper, which had absorbed 10 μL of a 50% ferric chloride solution, was applied on this segment of middle cerebral artery. The filter paper was removed after 30 min, and local tissues were rinsed with normal saline solution, followed by suture layer by layer. Then the experimental rats were put back to rearing cage. The temperature was controlled at 24° C. For the sham-operation group, the operation procedures were the same as the model group except for the application of the ferric chloride solution.
# The experimental animals were tested for behaviors 6 h and 24 h after operation according to the Sederson's method with modifications. Criteria: (1) The tail of the rat was lifted to observe the flexibility of the forelimb, with both forelimbs symmetrically stretching forward scored as 0, and occurrence of any or all of shoulder inflexion, elbow inflexion, shoulder intorsion in the contralateral fore-limb opposite to the operation side scored as 1. (2) The animal was placed on a plane, and its shoulders were pushed to the opposite direction to check resistance, Equivalency and strong resistance in both sides was scored as 0, and reduction in resistance in the contralateral side was scored as 1. (3) Both forelimbs of the rat were placed on wire gauze to observe the muscular tension. […] According to the criteria above, the full score is 4, and the higher the score is, the more serious the behavior disorder of the animal is.
# [2] = test system: Middle Cerebral Artery Thrombosis (MCAT) Rats; assay: Water content in brain tissues in middle cerebral artery thrombosis rats; assay type: in vivo, rat; settings: for Water content of affected hemisphere / Water content of unaffected hemisphere: 24 h after operation
# [3] = test system: streptozocin-induced diabetic mouse; settings: cited from earlier work
# IL-1β = assay: ELISA of IL-1β in brain tissue of cerebral ischemia-reperfusion rats; settings: brain homogenate
# [4] = test system: FeCl3-Induced Middle Cerebral Artery Thrombosis (MCAT) Rats; assay: Cerebral infarct size (TTC staining) in FeCl3-induced middle cerebral artery thrombosis rats; assay type: in vivo, rat; settings: for cerebral infarct size percentage to affected side / cerebral infarct size percentage to total brain: x ± s; for effect on cerebral infarct size (in words): 20 mg/kg and 40 mg/kg, 7 days
# Source text: as §1
# After behavior assessment, the animals were decapitated to remove the brains. The olfactory bulb, cerebellum and lower brain stem were removed, and the remaining part was cut into 5 coronal sections below 4° C. The sections were immediately placed into a TTC staining solution (containing 1.5 m 4% TTC, 0.1 ml 1M K2HPO4 and water (balance) per 5 ml staining solution), followed by incubation in dark at 37° C. for 30 min. Then, the sections were transferred into a solution of 10% formaldehyde and incubated in dark for 24 h. After staining, the non-ischemic areas were rose red, and the infracted areas were white. The white tissues were carefully collected and weighed. The extent of cerebral infarction was expressed as a percentage (%) of infracted tissue to the weight of total brain and also to the affected side of brain.
# platelet aggregation = settings: cited from earlier work
# IL-10 = assay: ELISA of IL-10 in brain tissue of cerebral ischemia-reperfusion rats; settings: brain homogenate
# [5] = test system: acute blood stagnation model rats; assay: Erythrocyte aggregation and deformability in acute blood stagnation model rats; assay type: in vivo, rat; settings: for effect on erythrocyte aggregation index (in words) / effect on erythrocyte deformability (in words): vs. model group; for Erythrocyte aggregation SS / Erythrocyte deformability SSS: area under curve; for Erythrocyte aggregation MAXD: maximal erythrocyte aggregation index; for Erythrocyte deformability MAXDI: maximal erythrocyte deformation index
# Procedure: MAO Teng-min's methods were modified to prepare the model. Rats were subcutaneously injected with 0.8 mg/kg adrenaline twice at 1 h and 5 h after administration on the fifth day, and were placed into ice-water at 4° C. for 5 min at 2 h after the first injection of adrenaline.
# To 40 μl of heparinized blood, 1 ml of deforming solution was added and mixed thoroughly. A sample of 0.8 ml was tested in an erythrocyte aggregation/deformability tester, and erythrocyte deformability was expressed as maximal erythrocyte deformation index and area under curve (SSS). Another 0.8 ml of anticoagulated blood was tested in an erythrocyte aggregation/deformability tester, and erythrocyte aggregation was expressed as maximal erythrocyte aggregation index (MAXD) and area under curve ([…]).
# TNF-α = assay: ELISA of TNF-α in brain tissue of cerebral ischemia-reperfusion rats; settings: brain homogenate
# TGF-β = assay: ELISA of TGF-β in brain tissue of cerebral ischemia-reperfusion rats; settings: brain homogenate
# [6] = test system: acute blood stagnation model rats; assay: Whole blood and plasma viscosities in acute blood stagnation model rats; assay type: in vivo, rat; settings: for effect on whole blood and plasma viscosities (in words): 10 mg/kg, 20 mg/kg and 40 mg/kg, high, middle and low shear rates
# Source text: MAO Teng-min's methods were modified to prepare the model.
# [7] = vs. model group P<0.05, P<0.01, listed as timosaponin BIT
# [8] = 40 mg/kg, listed as timosaponin BII, 40 mg/kg
structure (smiles),measurement,setting,value
"C[C@@H](CCC1(O)O[C@H]2C[C@H]3[C@@H]4CC[C@@H]5C[C@@H](O[C@@H]6O[C@H](CO)[C@H](O)[C@H](O)[C@H]6O[C@@H]6O[C@H](CO)[C@@H](O)[C@H](O)[C@H]6O)CC[C@]5(C)[C@H]4CC[C@]3(C)[C@H]2[C@@H]1C)CO[C@@H]1O[C@H](CO)[C@@H](O)[C@H](O)[C@H]1O (stereo partly drawn) [Timosaponin BII, (25S)-26-O-β-D-glucopyranosyl-22-hydroxy-5β-furostane-3β,26-diol-3-O-β-D-glucopyranosyl(1→2)-β-D-galactopyranoside]",effect on neurological symptoms (in words),"[1]; vs. model group P<0.05, P<0.01",ameliorate neurological symptoms
same,effect on neurological symptoms (in words),[1]; [7],significantly lower the neurological symptom score
same,neurological symptomatic score 6 h,[1]; 10 mg/kg by gavage 7 days,2.08 ± 0.67
same,neurological symptomatic score 6 h,[1]; 20 mg/kg by gavage 7 days,1.82 ± 0.75
same,neurological symptomatic score 6 h,[1]; 40 mg/kg by gavage 7 days,1.50 ± 0.71
same,neurological symptomatic score 24 h,[1]; 10 mg/kg by gavage 7 days,2.08 ± 0.79
same,neurological symptomatic score 24 h,[1]; 20 mg/kg by gavage 7 days,2.00 ± 0.45
same,neurological symptomatic score 24 h,[1]; 40 mg/kg by gavage 7 days,1.90 ± 0.74
same,effect on water content of brain / cerebral edema (in words),"[2]; 40 mg/kg, vs. model group P<0.05, 40 mg/kg",significantly lowered the water content in the affected hemisphere
same,effect on water content of brain / cerebral edema (in words),"[2]; 40 mg/kg, vs. model group P<0.05, listed as timosaponin BIT, 40 mg/kg",significantly reduce the water content of brain
same,Water content of affected hemisphere,[2]; 10 mg/kg,80.52 ± 0.69%
same,Water content of unaffected hemisphere,[2]; 10 mg/kg,79.51 ± 0.57%
same,Water content of affected hemisphere,[2]; 20 mg/kg,80.46 ± 0.79%
same,Water content of unaffected hemisphere,[2]; 20 mg/kg,79.41 ± 0.38%
same,Water content of affected hemisphere,[2]; 40 mg/kg,80.15 ± 0.99 %
same,Water content of unaffected hemisphere,[2]; 40 mg/kg,79.47 ± 0.44%
same,blood sugar level (in words),[3],can lower blood sugar level
same,IL-1β,IL-1β; 10 mg/kg by gavage 5 days,9.70 ± 0.30 pg/mL
same,IL-1β,IL-1β; 40 mg/kg by gavage 5 days,7.98 ± 0.80 pg/mL
same,cerebral infarct size percentage to affected side,[4]; 10 mg/kg by gavage 7 days,6.35 ± 3.39%
same,cerebral infarct size percentage to total brain,[4]; 10 mg/kg by gavage 7 days,3.27 ± 1.74%
same,effect on cerebral infarct size (in words),"[4]; vs. model group P<0.05, P<0.01",significantly reduced the cerebral infarct size
same,effect on cerebral infarct size (in words),[4]; [7],significantly reduce the cerebral infarct size
same,cerebral infarct size percentage to affected side,[4]; 20 mg/kg by gavage 7 days,5.37 ± 2.20 %
same,cerebral infarct size percentage to total brain,[4]; 20 mg/kg by gavage 7 days,2.92 ± 1.20 %
same,cerebral infarct size percentage to affected side,[4]; 40 mg/kg by gavage 7 days,3.88 ± 2.38 %
same,cerebral infarct size percentage to total brain,[4]; 40 mg/kg by gavage 7 days,1.99 ± 1.20 %
same,clotting time (in words),platelet aggregation,prolonging clotting time
same,platelet aggregation (in words),platelet aggregation,obviously inhibiting platelet aggregation
same,IL-10,IL-10; 10 mg/kg by gavage 5 days,14.49 ± 11.78 pg/mL
same,IL-10,IL-10; 40 mg/kg by gavage 5 days,11.19 ± 5.16 pg/mL
same,effect on erythrocyte aggregation index (in words),"[5]; 40 mg/kg, 40 mg/kg",reduce the erythrocyte agglutination index
same,effect on erythrocyte deformability (in words),"[5]; 40 mg/kg, 40 mg/kg",significantly improve the deformation ability of erythrocytes
same,effect on erythrocyte aggregation index (in words),[5]; [8],decrease in erythrocyte aggregation index
same,effect on erythrocyte deformability (in words),[5]; [8],significant increase in erythrocyte deformability index
same,Erythrocyte aggregation SS,[5]; 10 mg/kg,186.67 ± 28.85
same,Erythrocyte deformability SSS,[5]; 10 mg/kg,363.88 ± 19.58
same,Erythrocyte aggregation SS,[5]; 20 mg/kg,163.04 ± 50.23
same,Erythrocyte deformability SSS,[5]; 20 mg/kg,363.97 ± 27.87
same,Erythrocyte aggregation SS,[5]; 40 mg/kg,152.78 ± 28.11
same,Erythrocyte deformability SSS,[5]; 40 mg/kg,374.26 ± 15.82
same,Erythrocyte aggregation MAXD,[5]; 10 mg/kg,0.94 ± 0.14
same,Erythrocyte aggregation MAXD,[5]; 20 mg/kg,0.81 ± 0.26
same,Erythrocyte aggregation MAXD,[5]; 40 mg/kg,0.76 ± 0.14
same,Erythrocyte deformability MAXDI,[5]; 10 mg/kg,0.72 ± 0.05
same,Erythrocyte deformability MAXDI,[5]; 20 mg/kg,0.71 ± 0.05
same,Erythrocyte deformability MAXDI,[5]; 40 mg/kg,0.73 ± 0.03
same,TNFα,TNF-α; 10 mg/kg by gavage 5 days,8.44 ± 0.62 pg/mL
same,TNFα,TNF-α; 40 mg/kg by gavage 5 days,7.65 ± 0.61 pg/mL
same,TGF-β,TGF-β; 10 mg/kg by gavage 5 days,12.70 ± 3.57 pg/mL
same,TGF-β,TGF-β; 40 mg/kg by gavage 5 days,10.30 ± 3.79 pg/mL
same,Plasma viscosity (100 S^−1),[6]; 10 mg/kg by gavage 5 days,1.40 ± 0.10
same,Whole blood viscosity 1 S^−1,[6]; 10 mg/kg by gavage 5 days,27.03 ± 4.64
same,Whole blood viscosity 5 S^−1,[6]; 10 mg/kg by gavage 5 days,11.02 ± 1.38
same,Whole blood viscosity 30 S^−1,[6]; 10 mg/kg by gavage 5 days,6.10 ± 0.85
same,Whole blood viscosity 200 S^−1,[6]; 10 mg/kg by gavage 5 days,4.45 ± 0.71
same,effect on whole blood and plasma viscosities (in words),"[6]; P<0.05, P<0.01",significantly lowered whole blood and plasma viscosities
same,effect on whole blood and plasma viscosities (in words),"[6]; P<0.05, P<0.01, listed as timosaponin BII",significantly reduce the whole blood and plasma viscosities
same,Plasma viscosity (100 S^−1),[6]; 20 mg/kg by gavage 5 days,1.36 ± 0.10
same,Whole blood viscosity 1 S^−1,[6]; 20 mg/kg by gavage 5 days,33.13 ± 5.70
same,Whole blood viscosity 5 S^−1,[6]; 20 mg/kg by gavage 5 days,12.91 ± 1.82
same,Whole blood viscosity 30 S^−1,[6]; 20 mg/kg by gavage 5 days,6.55 ± 0.93
same,Whole blood viscosity 200 S^−1,[6]; 20 mg/kg by gavage 5 days,4.49 ± 0.70
same,Plasma viscosity (100 S^−1),[6]; 40 mg/kg by gavage 5 days,1.38 ± 0.12
same,Whole blood viscosity 1 S^−1,[6]; 40 mg/kg by gavage 5 days,31.21 ± 4.29
same,Whole blood viscosity 5 S^−1,[6]; 40 mg/kg by gavage 5 days,12.46 ± 1.33
same,Whole blood viscosity 30 S^−1,[6]; 40 mg/kg by gavage 5 days,6.45 ± 0.60
same,Whole blood viscosity 200 S^−1,[6]; 40 mg/kg by gavage 5 days,4.42 ± 0.38
